Values after ≈ are worked out from the molar mass of the structure shown. Active and inactive are the calls of the source. No cut-off for these calls is given here.
Legend:
Leishmania tropica [1] = experiment: Antileishmanial activity against Leishmania tropica MHOM/A7/1974/SAF-K27 incubated for 48 hrs by XTT method; format: functional, organism-based; conditions: MHOM/A7/1974/SAF-K27, 48 h
[2] = (§1) Cytotoxicity against mouse RAW264.7 cells by alamar blue method; format: toxicity, cell-based; conditions: mouse, RAW264.7 cells
RAW264.7 = experiment: as §1; format: toxicity, cell-based; conditions: raw264.7
Leishmania infantum [3] = experiment: Antileishmanial activity against Leishmania infantum infected in BALB/c mouse model of cutaneous leishmaniasis assessed as footpad lesion development at 50 mg/kg/day, ID administered for 21 days and measured after 4 weeks by Giemsa staining based analysis (reference value: 1.90 +/- 0.03); format: functional; conditions: time 21 day
Leishmania infantum [4] = experiment: Antileishmanial activity against Leishmania infantum infected in BALB/c mouse model of cutaneous leishmaniasis assessed as footpad lesion development at 50 mg/kg/day, ID administered for 21 days and measured after 18 weeks by Giemsa staining based analysis (reference value: 4.42 +/- 0.03); format: functional; conditions: time 21 day
Leishmania infantum [5] = experiment: Antileishmanial activity against Leishmania infantum infected in BALB/c mouse model of cutaneous leishmaniasis assessed as footpad lesion development at 50 mg/kg/day, ID administered for 21 days and measured after 22 weeks by Giemsa staining based analysis (reference value: 4.71 +/- 0.04); format: functional; conditions: time 21 day
Leishmania infantum [6] = experiment: Antileishmanial activity against Leishmania infantum infected in BALB/c mouse model of cutaneous leishmaniasis assessed as footpad lesion development at 50 mg/kg/day, ID administered for 21 days and measured after 24 weeks by Giemsa staining based analysis (reference value: 4.90 +/- 0.02); format: functional; conditions: time 21 day
Leishmania infantum [7] = experiment: Antileishmanial activity against Leishmania infantum infected in BALB/c mouse model of cutaneous leishmaniasis assessed as footpad lesion development at 50 mg/kg/day, ID administered for 21 days and measured after 30 weeks by Giemsa staining based analysis (reference value: 4.92 +/- 0.01); format: functional; conditions: time 21 day
Leishmania infantum [8] = experiment: Antileishmanial activity against Leishmania infantum infected in BALB/c mouse model of cutaneous leishmaniasis assessed as footpad lesion development at 50 mg/kg/day, ID administered for 21 days and measured after 32 weeks by Giemsa staining based analysis (reference value: 4.91 +/- 0.01); format: functional; conditions: time 21 day
Leishmania infantum [9] = experiment: Antileishmanial activity against Leishmania infantum infected in BALB/c mouse model of visceral leishmaniasis assessed as footpad lesion development at 50 mg/kg/day, IM administered for 21 days and measured after 1 week by Giemsa staining based analysis (reference value: 30.43 +/- 0.60); format: functional; conditions: time 21 day
Leishmania infantum [10] = experiment: Antileishmanial activity against Leishmania infantum infected in BALB/c mouse model of visceral leishmaniasis assessed as footpad lesion development at 50 mg/kg/day, IM administered for 21 days and measured after 3 weeks by Giemsa staining based analysis (reference value: 28.94 +/- 0.59); format: functional; conditions: time 21 day
Leishmania infantum [11] = experiment: Antileishmanial activity against Leishmania infantum infected in BALB/c mouse model of visceral leishmaniasis assessed as footpad lesion development at 50 mg/kg/day, IM administered for 21 days and measured after 5 weeks by Giemsa staining based analysis (reference value: 27.04 +/- 0.65); format: functional; conditions: time 21 day
Leishmania infantum [12] = experiment: Antileishmanial activity against Leishmania infantum infected in BALB/c mouse model of visceral leishmaniasis assessed as footpad lesion development at 50 mg/kg/day, IM administered for 21 days and measured after 7 weeks by Giemsa staining based analysis (reference value: 24.85 +/- 0.88); format: functional; conditions: time 21 day
Leishmania infantum [13] = experiment: Antileishmanial activity against Leishmania infantum infected in BALB/c mouse model of visceral leishmaniasis assessed as footpad lesion development at 50 mg/kg/day, IM administered for 21 days and measured after 9 weeks by Giemsa staining based analysis (reference value: 22.75 +/- 0.71); format: functional; conditions: time 21 day
Leishmania infantum [14] = experiment: Antileishmanial activity against Leishmania infantum infected in BALB/c mouse model of visceral leishmaniasis assessed as parasite growth in spleen at 50 mg/kg/day, IM administered for 21 days; format: functional, organism-based; conditions: time 21.0 day
Leishmania tropica [15] = experiment: Potency index, ratio of glucantime IC50 to test compound IC50 for antileishmanial activity against Leishmania tropica MHOM/A7/1974/SAF-K27; format: functional

SMILES	IC50 (Leishmania tropica [1]) [µg/mL]	IC50 [2] [µg/mL]	log10 IC50 (µg/mL) (RAW264.7)	Activity (Leishmania infantum [3])	Activity (Leishmania infantum [4])	Activity (Leishmania infantum [5])	Activity (Leishmania infantum [6])	Activity (Leishmania infantum [7])	Activity (Leishmania infantum [8])	Activity (Leishmania infantum [9])	Activity (Leishmania infantum [10])	Activity (Leishmania infantum [11])	Activity (Leishmania infantum [12])	Activity (Leishmania infantum [13])	Activity (Leishmania infantum [14])	Ratio IC50 (Leishmania tropica [15])
CN(C)c1ncc2nc(NC(=O)c3ccc(Cl)c([N+](=O)[O-])c3)sc2n1	6.68 (≈ 17.6 µM)	8.75 (≈ 23.1 µM)	0.94	1.89	4.41	4.67	4.88	2.58	2.08	30.38	28.71	26.95	26.77	28.13	Active	
CN1CCN(c2ncc3nc(NC(=O)c4ccc(Cl)c(Cl)c4)sc3n2)CC1	7.81 (≈ 18.4 µM)	16.4 (≈ 38.8 µM)	1.22	1.88	4.4	4.69	4.89	4.78	4.73	30.3	28.73	26.63	24.43	22.18	Active	
CCOC(=O)N1CCN(c2ncc3nc(NC(=O)c4ccc(Cl)c(Cl)c4)sc3n2)CC1	0.04 (≈ 0.0831 µM)	15 (≈ 31.2 µM)	1.18	1.88	4.4	4.69	4.9	2.89	2.42	30.63	28.71	26.78	26.22	27.35	inactive	200
